Assays:
[1] = tested on: NCI-H292; test: Cytotoxic effects, MTT assay; assay type: cell-based; settings: Homo sapiens, 72 h incubation
Description: The cells are cultivated by a standard method, as indicated in the […] (ATCC) for the respective cell lines.
At the end of the selected incubation time, the MTT reagent is incubated with the cells for 4 h, followed by lysis of the cells overnight by addition of the detergent. […] The proliferation of cells which were not treated with test substance but were otherwise identically treated was defined as the 100% figure.

[2] = molecular target: T1, human kinesin spindle protein KSP/Eg5 (Homo sapiens, UniProt P52732); test: Inhibition of the kinesin spindle protein KSP/Eg5 (ATPase, malachite green); assay type: biochemical; settings: 10 nM KSP motor domain, 500 μM ATP, 2 h RT
T1 construct: The motor domain of the human kinesin spindle protein KSP/Eg5; purchased tebu-bio/Cytoskeleton Inc 027EG01-XL
T1 sequence (P52732 18-359 limits assumed): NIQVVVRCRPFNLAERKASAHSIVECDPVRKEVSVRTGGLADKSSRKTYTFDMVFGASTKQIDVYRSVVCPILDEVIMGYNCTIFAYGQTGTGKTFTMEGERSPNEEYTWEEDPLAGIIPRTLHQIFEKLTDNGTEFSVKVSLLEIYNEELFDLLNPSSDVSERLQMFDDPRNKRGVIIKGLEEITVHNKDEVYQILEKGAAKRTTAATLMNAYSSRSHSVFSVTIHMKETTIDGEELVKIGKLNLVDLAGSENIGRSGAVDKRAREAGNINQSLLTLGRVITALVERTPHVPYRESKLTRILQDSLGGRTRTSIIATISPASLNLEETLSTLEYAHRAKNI
Method in brief: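 KSP/Eg5 motor domain (10 nM) preincubated 5 min at RT with 50 μg/ml taxol-stabilized bovine or porcine microtubules in 15 mM PIPES pH 6.8, 5 mM MgCl2, 10 mM DTT. IC50 = mean of three experiments.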

[3] = Cell permeability, flux assay using Caco-2 cells; settings: human, Caco-2

Structure (SMILES) | IC50 [1] | IC50 [2] | Papp B→A at 2 h [3] | efflux ratio at 2 h [3]
CC(C)(C)[C@H](c1nc(-c2cc(F)ccc2F)cn1Cc1ccccc1)N(CCCN)C(=O)CSCCC(NC(=O)CCOCCOCCOCCOCCNC(=O)CCN1C(=O)CC(SC[C@H](N)C(=O)O)C1=O)C(=O)O.O=C(O)C(F)(F)F.O=C(O)C(F)(F)F (mixture of isomers) [Example 140, N-[19-(3(R/S)-[{(2R)-2-Amino-2-carboxyethyl]sulphanyl}-2,5-dioxopyrrolidin-1-yl)-17-oxo-4,7,10,13-tetraoxa-16-azanonadecan-1-oyl]-R/S-{2-[(3-aminopropyl){(1R)-1-[1-benzyl-4-(2,5-difluorophenyl)-1H-imidazol-2-yl]-2,2-dimethylpropyl}amino]-2-oxoethyl}homocysteine/trifluoroacetic acid (1:2)] | ≥ 500 nM | 2.51 nM | 0.17 ×10⁻⁶ cm/s | 1
CC(C)(C)[C@H](c1nn(-c2cc(F)ccc2F)cc1Cc1ccccc1)N(CCCN)C(=O)CO [Example 96, N-(3-Aminopropyl)-N-{(1R)-1-[4-benzyl-1-(2,5-difluorophenyl)-1H-pyrazol-3-yl]-2,2-dimethylpropyl}-2-hydroxyacetamide] | 2.09 nM | 7.8 nM | 28.5 ×10⁻⁶ cm/s | 16
CC(C)(C)[C@H](c1nc(-c2cc(F)ccc2F)cn1Cc1ccccc1)N(CC[C@H](N)C(=O)NCCC(=O)NCCN1C(=O)CC(SC[C@H](N)C(=O)O)C1=O)C(=O)CO.O=C(O)C(F)(F)F (stereo partly drawn) [Example 130, S-(1-{2-[(N-{(2S)-2-Amino-4-[{(1R)-1-[1-benzyl-4-(2,5-difluorophenyl)-1H-imidazol-2-yl]-2,2-dimethylpropyl}(glycoloyl)amino]butanoyl}-beta-alanyl)amino]ethyl}-2,5-dioxopyrrolidin-3-yl)-L-cysteine/trifluoroacetic acid (1:1)] | 178 nM | 1.66 nM | 1 ×10⁻⁶ cm/s | 6.7
CC(C)(C)[C@H](c1nn(-c2cc(F)ccc2F)cc1Cc1ccccc1)N(CC[C@H](N)C(=O)NCCNC(=O)CN1C(=O)CC(SC[C@H](N)C(=O)O)C1=O)C(=O)CO.O=C(O)C(F)(F)F (stereo partly drawn) [Example 131, S-[1-(2-{[2-({(2S)-2-Amino-4-[{(1R)-1-[4-benzyl-1-(2,5-difluorophenyl)-1H-pyrazol-3-yl]-2,2-dimethylpropyl}(glycoloyl)amino]butanoyl}amino)ethyl]amino}-2-oxoethyl)-2,5-dioxopyrrolidin-3-yl]-L-cysteine/trifluoroacetic acid (1:1)] | ≥ 500 nM | 1.24 nM | 0.9 ×10⁻⁶ cm/s | 10
C[C@H](NC(=O)CCNC(=O)[C@@H](N)CCN(C(=O)CO)[C@@H](c1nn(-c2cc(F)ccc2F)cc1Cc1ccccc1)C(C)(C)C)C(=O)N[C@@H](CCCNC(N)=O)C(=O)Nc1ccc(N2C(=O)CC(SC[C@H](N)C(=O)O)C2=O)cc1.O=C(O)C(F)(F)F (stereo partly drawn) [Example 132, N-{(2S)-2-Amino-4-[{(1R)-1-[4-benzyl-1-(2,5-difluorophenyl)-1H-pyrazol-3-yl]-2,2-dimethylpropyl}(glycoloyl)amino]butanoyl}-beta-alanyl-L-alanyl-N-[4-(3-{[(2R)-2-amino-2-carboxyethyl]sulphanyl}-2,5-dioxopyrrolidin-1-yl)phenyl]-N^5-carbamoyl-L-ornithinamide/trifluoroacetic acid (1:1)] | ≥ 500 nM | 1.65 nM | 0.16 ×10⁻⁶ cm/s | 1
CC(C)(C)[C@H](c1cc(-c2cc(F)ccc2F)cn1Cc1ccccc1)N(CC[C@H](N)C(=O)NCCC(=O)NCCN1C(=O)CC(SC[C@H](N)C(=O)O)C1=O)C(=O)CO.O=C(O)C(F)(F)F (stereo partly drawn) [Example 133, S-(1-{2-[(N-{(2S)-2-Amino-4-[{(1R)-1-[1-benzyl-4-(2,5-difluorophenyl)-1H-pyrrol-2-yl]-2,2-dimethylpropyl}(glycoloyl)amino]butanoyl}-beta-alanyl)amino]ethyl}-2,5-dioxopyrrolidin-3-yl)-L-cysteine/trifluoroacetic acid (1:1)] | 155 nM | 4.13 nM | 0.43 ×10⁻⁶ cm/s | 6
CC(C)[C@H](NC(=O)CCCCCN1C(=O)CC(SC[C@H](N)C(=O)O)C1=O)C(=O)N[C@@H](CCCNC(N)=O)C(=O)N[C@@H](CCCCNC(=O)[C@@H](N)CCN(C(=O)CO)[C@@H](c1nn(-c2cc(F)ccc2F)cc1Cc1ccccc1)C(C)(C)C)C(=O)O (stereo partly drawn) [Example 134, N-[6-(3-{[(2R)-2-Amino-2-carboxyethyl]sulphanyl}-2,5-dioxopyrrolidin-1-yl)hexanoyl]-L-valyl-N^5-carbamoyl-L-ornithyl-N^6-{(2S)-2-amino-4-[{(1R)-1-[4-benzyl-1-(2,5-difluorophenyl)-1H-pyrazol-3-yl]-2,2-dimethylpropyl}(glycoloyl)amino]butanoyl}-L-lysine/trifluoroacetic acid (1:1)] | ≥ 500 nM | 4.35 nM | 0.29 ×10⁻⁶ cm/s | 0.5
CC(C)(C)[C@H](c1nn(-c2cc(F)ccc2F)cc1Cc1ccccc1)N(CC[C@H](N)C(=O)NCCNC(=O)CSC[C@H](N)C(=O)O)C(=O)CO.O=C(O)C(F)(F)F [Example 136, S-(2-{[2-({(2S)-2-Amino-4-[{(1R)-1-[4-benzyl-1-(2,5-difluorophenyl)-1H-pyrazol-3-yl]-2,2-dimethylpropyl}(glycoloyl)amino]butanoyl}amino)ethyl]amino}-2-oxoethyl)-L-cysteine/trifluoroacetic acid (1:1)] | ≥ 500 nM | 0.328 nM | 0.91 ×10⁻⁶ cm/s | 8.5
CC(C)(C)[C@H](c1nn(-c2cc(F)ccc2F)cc1Cc1ccccc1)N(CC[C@H](N)C(=O)NNC(=O)CCCCCN1C(=O)CC(SC[C@H](N)C(=O)O)C1=O)C(=O)CO.O=C(O)C(F)(F)F (stereo partly drawn) [Example 137, S-{1-[6-(2-{(2S)-2-Amino-4-[{(1R)-1-[4-benzyl-1-(2,5-difluorophenyl)-1H-pyrazol-3-yl]-2,2-dimethylpropyl}(glycoloyl)amino]butanoyl}hydrazino)-6-oxohexyl]-2,5-dioxopyrrolidin-3-yl}-L-cysteine/trifluoroacetic acid (1:1)] | ≥ 500 nM | 0.778 nM | 1.7 ×10⁻⁶ cm/s | 19
CC(C)(C)[C@H](c1cc(-c2cc(F)ccc2F)cn1Cc1ccccc1)N(CC[C@H](N)C(=O)NCCN1C(=O)CC(SC[C@H](N)C(=O)O)C1=O)C(=O)CO.O=C(O)C(F)(F)F.O=C(O)C(F)(F)F (stereo partly drawn) [Example 139, S-{(3R/S)-1-[2-({(2S)-2-amino-4-[{(1R)-1-[1-benzyl-4-(2,5-difluorophenyl)-1H-pyrrol-2-yl]-2,2-dimethylpropyl}(glycoloyl)amino]butanoyl}amino)ethyl]-2,5-dioxopyrrolidin-3-yl}-L-cysteine/trifluoroacetic acid (1:2)] | 134 nM | 1.82 nM | 2.1 ×10⁻⁶ cm/s | 7.7
CC(C)(C)[C@H](c1cc(-c2cc(F)ccc2F)cn1Cc1ccccc1)N(CCCN)C(=O)CSCCCCCC(=O)NCCN1C(=O)CC(SC[C@H](N)C(=O)O)C1=O.O=C(O)C(F)(F)F.O=C(O)C(F)(F)F (stereo partly drawn) [Example 141, S-[(3R/S)-1-(2-{[6-({2-[(3-aminopropyl) {(1R)-1-[1-benzyl-4-(2,5-difluorophenyl)-1H-pyrrol-2-yl]-2,2-dimethylpropyl}amino]-2-oxoethyl}sulphanyl)hexanoyl]amino}ethyl)-2,5-dioxopyrrolidin-3-yl]-L-cysteine/trifluoroacetic acid (1:2)] | 16.1 nM | 0.902 nM | 3 ×10⁻⁶ cm/s | 35
CC(C)(C)[C@H](c1cc(-c2cc(F)ccc2F)cn1Cc1ccccc1)N(CCCN)C(=O)CSCCC(=O)O [Example 231, 3-({2-[(3-Aminopropyl){(1R)-1-[1-benzyl-4-(2,5-difluorophenyl)-1H-pyrrol-2-yl]-2,2-dimethylpropyl}amino]-2-oxoethyl}sulphanyl)propanoic acid/trifluoroacetic acid (1:1)] | 0.918 nM | 1.67 nM |  | 
CC(C)(C)[C@H](c1cc(-c2cc(F)ccc2F)cn1Cc1ccccc1)N(CCCN)C(=O)c1ccc(N)cc1 [Example 233, Trifluoroactic acid/4-amino-N-(3-aminopropyl)-N-{(1R)-1-[1-benzyl-4-(2,5-difluorophenyl)-1H-pyrrol-2-yl]-2,2-dimethylpropyl}benzamide (2:1)] | 0.963 nM | 3.88 nM |  | 
CC(C)(C)[C@H](c1cc(-c2cc(F)ccc2F)cn1Cc1ccccc1)N(CC[C@H](N)C(=O)NCCCCCCN1C(=O)CC(SC[C@H](N)C(=O)O)C1=O)C(=O)CO (stereo partly drawn) [Example 249, S-{1-[6-({(2S)-2-Amino-4-[{(1R)-1-[1-benzyl-4-(2,5-difluorophenyl)-1H-pyrrol-2-yl]-2,2-dimethylpropyl}(glycoloyl)amino]butanoyl}amino)hexyl]-2,5-dioxopyrrolidin-3-yl}-L-cysteine/trifluoroacetic acid (1:1)] | 26.6 nM | 0.915 nM |  | 
